One series deals with Smad4. The series can be described thus: TGF-β inhibition in HepG2 cell lines, qRT-PCR of Smad4 mRNA. Type of series: cell-based, human. The following applies: HepG2, 10 ng/ml TGF-β1; PEP1 1, 5 and 10 μM; 48-hour culture; reference gene GAPDH. On the procedure:
(§1) To verify the TGF-β inhibitory effect of PEP1, which is considered as the main cause of fibrosis, an experiment for confirming a TGF-β signaling inhibiting action in HepG2 cell lines was performed as follows.
(§2) Reagents and materials used in the experiment are as follows. After powdery PEP1 was dissolved in 0.2 μm filtered sterile water, aliquots were stored at −70° C. and then dissolved before use. As a cell line, HepG2 (ATCC HB-8065; American Type Culture Collection) was used, and recombinant human TGF-β1 was dissolved in 4 mM HCl, thereby preparing a 10 μg/mL stock. SB431542 (Sigma) used as a positive control was prepared in a 10 mM stock.
(§3) 2×10^6 HepG2 cells (ATCC HB-8065) were seeded into a 60 mm petri-dish and cultured in a CO2 incubator for 16 hours. Afterward, media were transferred to serum-free media (SFM), and then the cells were further cultured for 24 hours. […]
(§4) RNA was extracted from peptide-treated cells using an RNEASY® Plus Mini Kit (Qiagen) (RNA extraction kit) according to the manufacture's protocol. The extracted RNA was quantified, and then cDNA was synthesized from 1 μg of total RNA using a reverse transcription system (Promega). […] As TGF-β-related biomarkers, mRNA expression of fibronectin (FN), Smad2 and Smad4 were analyzed, and as a reference gene, GAPDH was used. […]

Another series has as its system AsPC1 cells. As to the kind of experiment: AsPC1 cell xenograft model: fibrosis, cancer cells and mouse weight. The class given is in vivo, nude mice. As to conditions: for fibrosis (collagen parts stained in blue color in cancer tissue): administration starting 10 days after inoculation, PEP1 2 mg/kg once a day s.c. The method, then:
To verify in vivo anticancer effects of PEP1 and gemcitabine on pancreatic cancer, xenograft experiments were performed using AsPC1 cell lines. A xenografting method used herein is as follows.
Reagents and materials used for the experiment are as follows. After powdery PEP1 was dissolved in 0.2 μm filtered sterile water, aliquots were stored at −70° C. and then dissolved before use, and gemcitabine was dissolved in 100% saline. 5-fluorouracil was dissolved in DMSO.
AsPC1 cell lines (Cell #6×10^5 cells/[…]), which were cell lines used in the experiment, are human pancreatic cancer metastatic cells purchased from the American Type Cell Culture (ATCC, Rockville, Md.).
AsPC1 cells were injected into each of nude mouse experiment groups (1) to (4).
The cultured 5×10^6 AsPC1 cells were subcutaneously injected into nude mice (BALB/c-nu/nu nude mice, purchased from Joongang Laboratory animal, Seoul, Korea). The injection was performed until cancer was grown to a size of 100 mm^3 (about 10 days). Following cancer engraftment, the mice were divided into groups, each group having a similar average weight, and then either or both of gemcitabine and Pep1 were subcutaneously and intraperitoneally injected into the mice according to the conditions for each of the four experiment groups below (refer to FIG. 1). Cancer volume was measured with calipers and calculated by the following formula [width^2×length×0.52].
After grafting, either or both of Pep1 and gemcitabine were administered to each of the four experiment groups.
(1) AsPC1 grafting control
(2) AsPC1 grafting+PEP1 2 mg/kg (once a day, s.c) administered group
After then, weight of each mouse was quantified every time. Also, cancer tissue sample preparation and cell proliferation marker (PCNA)/apoptosis marker (TUNEL) staining were performed.
For analyses of experiment results, averages between several experiment groups was assessed by a student's t-test.

The subject of the next series is GRHL2. As to the kind of experiment: Biomarker expression in radiation-exposed NHEKs: GRHL2. As to conditions: 1 mM of PEP1, 10 days after radiation exposure (6 Gy). Type of series: cell-based, human. On the procedure:
(§5) PEP1 synthesized according to Example 1 and a placebo (sham) as a control were prepared. Normal human epidermal keratinocytes (NHEKs) were cultured in a monolayer to be used for a radiation exposure experiment. For the radiation exposure experiment, ionized radiation was used at an intensity of 6 Gy.
(§6) Also, to examine the change in expression levels of biomarkers for the NHEK cell lines due to the radiation exposure, the NHEKs were treated with each of the placebo and 1 mM of PEP1 and divided into non-exposed groups (−) and radiation-exposed groups (+), and then expression levels of the biomarkers were examined at day 1 and day 10 after the radiation exposure (refer to FIG. 14). In measurement of the expression levels of the biomarkers, GAPDH was used as a reference control.
(§7) Western blotting procedures were as follows. Peptide-treated cells were washed with PBS twice, collected into a 1.5 mL centrifuge tube using a cell scraper, followed by centrifugation (1,000 rpm, 4° C., 2 minutes). After removal of the obtained supernatant, 100 μL of RIPA buffer was added to the NHEKs. […]
(§8) […] of protein was transferred to a PVDF membrane (Millipore) by 8% sodium dodecyl sulfate-polyacrylamide gel electrophoresis (SDS-PAGE). […] Afterward, ECL detection (Amersham Pharmacia Biotech) was performed, and obtained images were analyzed using an image analyzer (GE Healthcare, IMAGEQUANT™ LAS 4000).

A further series relates to Smad2. The series can be described thus: TGF-β inhibition in HepG2 cell lines, qRT-PCR of Smad2 mRNA. Type of series: cell-based, human. The following applies: HepG2, 10 ng/ml TGF-β1; PEP1 1, 5 and 10 μM; 48-hour culture; reference gene GAPDH. The method, then: as §1, §2, §3, §4
(In general: In qPCR the cycle at which signal appears reflects the starting amount.)

The subject of series [1] is Normal human epidermal keratinocytes (NHEKs). The series can be described thus: Cell differentiation of radiation-exposed NHEK cell lines. The class given is cell-based. The following applies: 1 mM of PEP1, 6 Gy ionizing radiation, cultured 10 days. The method, then:
To confirm PEP1 effects on fibrosis induced by radiation exposure for anticancer treatment and other tumor treatments, an experiment for confirming a TGF-β inhibitory effect of PEP1 in radiation-exposed NHEKs was performed.
as §5
To examine the cell differentiation of NHEK cell lines according to radiation exposure, NHEKs were treated with each of the placebo and 1 mM of PEP1, and then divided into radiation-exposed groups and non-exposed groups, followed by culturing for 10 days (refer to FIG. 13).

For the next series, the system named is oral mucositis model. As to the kind of experiment: In vivo oral mucositis model, radiation-induced tongue ulcer. The following applies: C3H mice, PEP1 1 mg/kg intraperitoneally, 6 Gy IR for five consecutive days. The method, then:
(§9) PEP1 synthesized according to Example 1 and a placebo (sham) used as a control were prepared. NHEKs were cultured in a monolayer to prepare an in vitro radiation exposure experiment. For in vitro, in situ, and in vivo radiation exposure experiments, ionized radiation was used at various intensities ranging from 0 to 10 Gy (0, 2, 4, 6, 8, and 10 Gy).
(§10) Meanwhile, experimental animals were divided into two animal models. The first model was an oral mucositis model, which was prepared by inducing an ulcer to the tongue of each C3H mouse by exposing the head and the neck to radiation (6 Gy, IR) for 5 straight days. The second model is a dermal fibrosis model, which was prepared by inducing local scleroderma by subcutaneously injecting 0.1 cc of a dilution of bleomycin which was known as the cause of pulmonary fibrosis in a 0.9% NaCl aqueous solution at a concentration of 0.5 mg/ml once a day for 24 to 28 days.
For the in vivo experiment, first, in the first oral mucositis model, C3H mice were divided into groups, each intraperitoneally treated with a placebo or PEP1 to give a final dose of 1 mg/kg and exposed to radiation (6 Gy, IR) for five consecutive days to induce a tongue ulcer corresponding to an oral mucositis. Ten days later, the mice were sacrificed to collect tongue tissue, which was stained with toluidine blue and by H&E staining, to perform biopsy. […]

The subject of a further series is NHEK cell lines. The series can be described thus: In vitro radiation-induced premature senescence (RIPS) marker expression in NHEKs. Type of series: cell-based, human. As to conditions: radiation 0 to 10 Gy, qRT-PCR, western blotting, immunofluorescence staining. The method, then: as §9
The expression level of each marker was measured using qRT-PCR, western blotting, and immunofluorescence staining. For the measurement of the levels, senescence-associated β-galactosidase (SA β-Gal), p16INK4A, p-p53Ser15, p-ATM, γ-H2AX, 53BP1,H3K9me3, HP1γ, and HMGA2 were used as markers.

In the next series the test system is N-Cad. The series can be described thus: Biomarker expression in radiation-exposed NHEKs: N-Cad. The class given is cell-based, human. The following applies: 1 mM of PEP1, after radiation exposure (6 Gy). The method, then: as §5, §6, §7, §8
The test system of the next series is P-Akt. The series can be described thus: Biomarker expression in radiation-exposed NHEKs: P-Akt. The class given is cell-based, human. The following applies: 1 mM of PEP1, after radiation exposure (6 Gy). The method, then:
as §5, §6, §7, §8

The next series relates to dermal fibrosis model. The series can be described thus: In vivo dermal fibrosis model, bleomycin-induced scleroderma. The following applies: C3H mice, PEP1 50 mg/kg intraperitoneally, bleomycin subcutaneously for 24 to 28 days. On the procedure: as §10, with “28 days. Meanwhile, in the second dermal fibrosis model, C3H mice were divided into groups, each intraperitoneally treated with a placebo or PEP1 to give the final dose of 50 mg/kg, and subcutaneously treated with bleomycin at the concentrations mentioned in the preparation of the experimental animals for 24 to 28 days. 28 days later, the mice were sacrificed to detect scleroderma, followed by an experiment for examining fibrosis diffusion using Masson's trichrome staining.” for “28 days.”

A further series relates to p63. The series can be described thus: Biomarker expression in radiation-exposed NHEKs: p63. The class given is cell-based, human. As to conditions: 1 mM of PEP1, 10 days after radiation exposure (6 Gy). The method, then:
as §5, §6, §7, §8

The next series concerns fibronectin (FN). As to the kind of experiment: TGF-β inhibition in HepG2 cell lines, qRT-PCR of fibronectin mRNA. Type of series: cell-based, human. As to conditions: HepG2, TGF-β1 treated; positive control. On the procedure: as §1, §2, §3, §4
The mark [2] stands for this setting: nude mice inoculated with AsPC1 cells, gemcitabine 125 mg/kg once every third day i.p.

For the compound “EARPALLTSRLRFIPK (listed as Homo sapiens) [PEP1, telomerase-derived peptide, which consists of 16 amino acids; position [611-626] on telomerase]”, in the series on Smad4, the “Smad4 mRNA expression” value is recorded as “concentration-dependently inhibited”. The “fibrosis (collagen parts stained in blue color in cancer tissue)” value in the series with AsPC1 cells (setting [2]) is reported as “fibrosis was considerably inhibited”. In addition, in the series with GRHL2, the GRHL2 expression level entry is given as “increased”. Also, the “Smad2 mRNA expression” value in the series with Smad2 is given as “concentration-dependently inhibited”. Further, the “cell differentiation (fibrosis development) after radiation exposure” value in series [1] is listed as “hardly showed differentiation”. Further, in the series with oral mucositis model, the “defensive effect against exposure to radiation, indicated by biopsy” value is on record as “defensive effects”. For the same compound, the “radiation-induced premature senescence (RIPS), indicated by marker expression” value in the series with NHEK cell lines is on record as “RIPS inhibitory effect”. Moreover, the N-Cad expression level result in the series on N-Cad is “decreased”. The “P-Akt expression level (degree of cell survival)” value in the series with P-Akt is on record as “increased”. Further, the “defensive effect against induction of tissue fibrosis, indicated by biopsy” value in the series on dermal fibrosis model is given as “defensive effects”. Further, the p63 expression level entry in the series on p63 was “increased”.
Consider `Nc1ccn([C@@H]2O[C@H](CO)[C@@H](O)C2(F)F)c(=O)n1` [gemcitabine], for which the “weight of a mouse” value in the series with AsPC1 cells (day 20 after the administration, compared between the four experiment groups) is “the smallest”. Further, in the series with AsPC1 cells (setting [2]), the “fibrosis (collagen parts stained in blue color in cancer tissue)” value is recorded as “fibrosis was considerably developed” and the “cancer cells (parts stained in red color)” value is “cancer cells were killed”.
With `NC(=O)c1ccc(-c2nc(-c3ccc4c(c3)OCO4)c(-c3ccccn3)[nH]2)cc1` [SB431542], the fibronectin inhibition ratio in the series with fibronectin (FN) was 60.7%.

For the origin of these results see patent US9937240B2, “Peptide having fibrosis inhibitory activity and composition containing same” (GemVax & KAEL Co., Ltd., priority 2014, dated 2018).
